“And” between values parts separate entries of the source, which are not always exact repeats. Equal values may be shown once.
Assay: heat capacity at constant pressure per volume; xn = mol fraction of the nth substance listed
Settings: 101 kPa, Liquid, DSC, x2 = 0.695

CCCCCCCCCCCCCCCCC [heptadecane] + N#Cc1ccccc1
Settings	heat capacity
319 K	1720700 J/K/m3
319.1 K	1720600 J/K/m3
319.2 K	1720500 J/K/m3
319.3 K	1720600 J/K/m3
319.5 K	1721300 J/K/m3
319.6 K	1721200 J/K/m3
319.7 K	1720900 J/K/m3
319.8 K	1720700 J/K/m3
319.9 K	1720500 J/K/m3
320 K	1720400 J/K/m3
320.1 K	1720500 J/K/m3
320.2 K	1720300 J/K/m3
320.3 K	1720800 J/K/m3
320.4 K	1720700 J/K/m3
320.5 K	1720400 J/K/m3
320.61 K	1720200 J/K/m3
320.7 K	1720000 J/K/m3
320.8 K	1720000 J/K/m3
320.9 K	1719900 J/K/m3
321 K	1720300 J/K/m3
321.1 K	1720600 J/K/m3
321.2 K	1720600 J/K/m3
321.3 K	1720600 J/K/m3
321.4 K	1720400 J/K/m3
321.5 K	1720000 J/K/m3
321.61 K	1719900 J/K/m3
321.7 K	1720100 J/K/m3
321.8 K	1720100 J/K/m3
321.89 K	1720400 J/K/m3
322 K	1720500 J/K/m3
322.1 K	1720500 J/K/m3
322.2 K	1720100 J/K/m3
322.3 K	1720100 J/K/m3
322.4 K	1720300 J/K/m3
322.5 K	1720600 J/K/m3
322.6 K	1720600 J/K/m3
322.7 K	1720800 J/K/m3
322.81 K	1721200 J/K/m3
322.9 K	1720800 J/K/m3
323 K	1720200 J/K/m3
323.11 K	1720200 J/K/m3
323.2 K	1720100 J/K/m3
323.3 K	1720100 J/K/m3
323.4 K	1720200 J/K/m3
323.5 K	1720700 J/K/m3
323.6 K	1720800 J/K/m3
323.7 K	1720800 J/K/m3
323.8 K	1720500 J/K/m3
323.9 K	1720400 J/K/m3
324 K	1720200 J/K/m3
324.1 K	1720200 J/K/m3
324.2 K	1720200 J/K/m3
324.3 K	1720300 J/K/m3
324.4 K	1720500 J/K/m3
324.5 K	1720500 J/K/m3
324.6 K	1720500 J/K/m3
324.7 K	1720600 J/K/m3
324.8 K	1720600 J/K/m3
324.9 K	1720400 J/K/m3
325 K	1720700 J/K/m3
325.1 K	1720700 J/K/m3
325.2 K	1720400 J/K/m3
325.3 K	1719500 J/K/m3
325.4 K	1720300 J/K/m3
325.5 K	1720500 J/K/m3
325.6 K	1720300 J/K/m3
325.7 K	1720400 J/K/m3
325.8 K	1720200 J/K/m3
325.9 K	1720200 J/K/m3
326 K	1720600 J/K/m3
326.1 K	1720900 J/K/m3
326.2 K	1720900 J/K/m3
326.3 K	1720900 J/K/m3
326.4 K	1720400 J/K/m3
326.5 K	1720200 J/K/m3
326.6 K	1720300 J/K/m3
326.7 K	1720400 J/K/m3
326.8 K	1720400 J/K/m3
326.9 K	1720700 J/K/m3
327 K	1721000 J/K/m3
327.1 K	1721000 J/K/m3
327.2 K	1721100 J/K/m3
327.3 K	1720800 J/K/m3
327.41 K	1720500 J/K/m3
327.5 K	1720400 J/K/m3
327.6 K	1720500 J/K/m3
327.7 K	1721000 J/K/m3
327.8 K	1721200 J/K/m3
327.9 K	1720800 J/K/m3
328 K	1720800 J/K/m3
328.1 K	1720800 J/K/m3
328.2 K	1720900 J/K/m3
328.3 K	1720700 J/K/m3
328.4 K	1720800 J/K/m3
328.5 K	1721000 J/K/m3
328.6 K	1721500 J/K/m3
328.7 K	1721400 J/K/m3
328.8 K	1721200 J/K/m3
328.9 K	1721300 J/K/m3
329 K	1720900 J/K/m3
329.1 K	1720900 J/K/m3
329.2 K	1720800 J/K/m3
329.3 K	1720700 J/K/m3
329.4 K	1721000 J/K/m3
329.5 K	1721100 J/K/m3
329.61 K	1721300 J/K/m3
329.7 K	1721300 J/K/m3
329.8 K	1721400 J/K/m3
329.9 K	1721400 J/K/m3
330 K	1721300 J/K/m3
330.1 K	1722000 J/K/m3
330.2 K	1722500 J/K/m3
330.3 K	1722400 J/K/m3
330.4 K	1722100 J/K/m3
330.5 K	1721600 J/K/m3
330.61 K	1721600 J/K/m3
330.7 K	1721300 J/K/m3
330.8 K	1721300 J/K/m3
330.9 K	1721300 J/K/m3
331 K	1721500 J/K/m3
331.1 K	1721700 J/K/m3
331.2 K	1721500 J/K/m3
331.3 K	1721200 J/K/m3
331.4 K	1721400 J/K/m3
331.5 K	1721300 J/K/m3
331.6 K	1721300 J/K/m3
331.7 K	1721500 J/K/m3
331.81 K	1721700 J/K/m3
331.9 K	1722000 J/K/m3
332 K	1722000 J/K/m3
332.1 K	1721900 J/K/m3
332.2 K	1722100 J/K/m3
332.3 K	1722100 J/K/m3
332.4 K	1722000 J/K/m3
332.5 K	1722000 J/K/m3
332.6 K	1722200 J/K/m3
332.7 K	1722600 J/K/m3
332.8 K	1722700 J/K/m3
332.9 K	1722700 J/K/m3
333 K	1722600 J/K/m3
333.1 K	1722200 J/K/m3
333.2 K	1721900 J/K/m3
333.31 K	1721900 J/K/m3
333.4 K	1722000 J/K/m3
333.5 K	1722000 J/K/m3
333.6 K	1722200 J/K/m3
333.7 K	1722700 J/K/m3
333.8 K	1722800 J/K/m3
333.9 K	1722600 J/K/m3
334 K	1722600 J/K/m3
334.1 K	1722700 J/K/m3
334.2 K	1722600 J/K/m3
334.3 K	1722900 J/K/m3
334.4 K	1723400 J/K/m3
334.5 K	1723900 J/K/m3
334.6 K	1723800 J/K/m3
334.7 K	1723400 J/K/m3
334.8 K	1723000 J/K/m3
334.9 K	1722900 J/K/m3
335 K	1723100 J/K/m3
335.1 K	1723300 J/K/m3
335.2 K	1723600 J/K/m3
335.3 K	1723700 J/K/m3
335.4 K	1723700 J/K/m3
335.5 K	1723700 J/K/m3
335.6 K	1723600 J/K/m3
335.7 K	1723500 J/K/m3
335.8 K	1723300 J/K/m3
335.9 K	1723400 J/K/m3
336 K	1723600 J/K/m3
336.1 K	1723400 J/K/m3
336.2 K	1723600 J/K/m3
336.3 K	1723200 J/K/m3
336.4 K	1723100 J/K/m3
336.5 K	1723300 J/K/m3
336.6 K	1723400 J/K/m3
336.7 K	1723700 J/K/m3
336.8 K	1724100 J/K/m3
336.9 K	1724400 J/K/m3
337 K	1724100 J/K/m3
337.1 K	1724200 J/K/m3
337.18 K	1724100 J/K/m3
337.32 K	1723700 J/K/m3
337.43 K	1723700 J/K/m3
337.52 K	1724100 J/K/m3
337.6 K	1724300 J/K/m3
337.73 K	1724500 J/K/m3
337.8 K	1724400 J/K/m3
337.9 K	1724900 J/K/m3
338 K	1724800 J/K/m3
338.01 K	1724800 J/K/m3
338.02 K	1724900 J/K/m3
338.03 K	1724900 J/K/m3
338.45 K	1724800 J/K/m3 and 1724900 J/K/m3
338.53 K	1725300 J/K/m3
338.58 K	1725400 J/K/m3
338.59 K	1725200 J/K/m3
338.6 K	1725300 J/K/m3
338.62 K	1725200 J/K/m3
339 K	1724600 J/K/m3 and 1724700 J/K/m3
339.01 K	1724600 J/K/m3 and 1724500 J/K/m3
339.1 K	1724700 J/K/m3 and 1724600 J/K/m3
339.11 K	1724700 J/K/m3 and 1724800 J/K/m3
339.13 K	1724700 J/K/m3
339.2 K	1725100 J/K/m3
